Earlier results as cited in patent publication US8293900B2, “Acylated spiropiperidine derivatives as melanocortin-4 receptor modulators” (Merck Sharp & Dohme Corp, priority 2005, dated 2012).

Experiments:
[1] = oral route
[2] = injected intramuscularly or subcutaneously, males with psychogenic erectile dysfunction

## Ac-Nle-c[Asp-His-DPhe-Arg-Trp-Lys]-NH2 [MT-II]
[1]
  absorption into the systemic circulation: not absorbed into the systemic circulation
[2]
  response rate: 75%
